According to patent US10131642B1, “Aldosterone synthase inhibitors” (Boehringer Ingelheim International GmbH, priority 2015, dated 2018):
Counter-ions that a name gives are not always drawn. Like-named read-outs stand apart in the source and are kept apart here.

Tests used:
[1] = target: T1, aldosterone synthase (CYP11B2) (Macaca fascicularis, UniProt A0A2K5UPL9); test: Inhibition of aldosterone synthase (cynomolgus adrenal mitochondria, aldosterone by mass spectrometry); type: biochemical, cynomolgus monkey; settings: cynomolgus adrenal gland mitochondria, 2 μM corticosterone substrate, 90 minutes at 37° C.
T1 construct: cynomolgus adrenal gland mitochondria as the source of aldosterone synthase (CYP11B2); from tissue; host or cells: cynomolgus monkey adrenal gland mitochondria
T1 sequence (A0A2K5UPL9 1-503): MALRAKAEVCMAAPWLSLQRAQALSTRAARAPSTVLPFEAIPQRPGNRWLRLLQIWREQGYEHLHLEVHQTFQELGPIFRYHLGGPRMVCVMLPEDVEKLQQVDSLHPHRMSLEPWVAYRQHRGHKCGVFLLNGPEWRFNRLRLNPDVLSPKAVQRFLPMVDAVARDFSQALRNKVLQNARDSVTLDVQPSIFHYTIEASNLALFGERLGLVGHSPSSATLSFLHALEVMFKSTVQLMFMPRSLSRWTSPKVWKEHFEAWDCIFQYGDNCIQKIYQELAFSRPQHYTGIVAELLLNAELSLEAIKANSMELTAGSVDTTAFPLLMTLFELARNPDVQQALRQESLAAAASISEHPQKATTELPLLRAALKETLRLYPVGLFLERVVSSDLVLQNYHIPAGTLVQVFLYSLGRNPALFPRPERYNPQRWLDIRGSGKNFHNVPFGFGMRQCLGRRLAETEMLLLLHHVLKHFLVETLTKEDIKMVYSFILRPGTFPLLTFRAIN
Method: (§1) The aldosterone synthase and cortisol synthase inhibition assays employ cynomolgus adrenal gland mitochondria as the source of aldosterone synthase (CYP11B2) and cortisol synthase (CYP11B1). Mitochondria are prepared from frozen cynomolgus monkey adrenal glands according to Method A described in by J. D. McGarry et al. (Biochem. J., 1983, 214, 21-28), with a final resuspension in the AT buffer described in R. Yamaguchi et al. (Cell Death and Differentiation, 2007, 14, 616-624), frozen as aliquots in liquid nitrogen and stored at −80° C. until use. Activity of CYP11B2 and CYP11B1 in these preparations is defined as the amount of enzyme that generates 1 pmol of product in one hour under the conditions described.
Assays are performed in 96-well format in a final volume of 60 µL/well, containing 100 mM potassium phosphate, pH 7.4, 1% (v/v) DMSO, and additionally, 2 μM of corticosterone and 50 units of CYP11B2 activity. Reactions are started by the addition of NADPH to 1 mM and allowed to proceed for 90 minutes at 37° C. Reactions are terminated by the addition of 60 μL of MeCN containing an internal standard for mass spectrometry. One hundred microliters are then transferred to a glass filter plate and centrifuged at 570×g for 5 minutes and the filtrate is collected. Reaction product aldosterone is quantified by mass spectrometry. To determine the assay blank value (0% activity), NADPH is omitted from some reactions.
Dose dependent inhibition is quantified by the inclusion of compound at various concentrations. Maximum activity (100%) is defined by reactions containing NADPH, but without compound. Activities at each concentration are expressed as a percentage of the maximum activity (y-axis) and plotted against concentration of compound (x-axis) and the concentration corresponding to 50% activity (IC50) determined using the XLFit curve-fitting program using a 4-parameter logistic model.

[2] = target: cortisol synthase (CYP11B1) (Macaca fascicularis, UniProt A0A2K5ULY1); test: Inhibition of cortisol synthesis (cynomolgus adrenal mitochondria, cortisol by mass spectrometry); type: biochemical, cynomolgus monkey
Method: as §1, with “described. Dose dependent inhibition is quantified by the inclusion of compound at various concentrations. Maximum activity (100%) is defined by reactions containing NADPH, but without compound. Activities at each concentration are expressed as a percentage of the maximum activity (y-axis) and plotted against concentration of compound (x-axis) and the concentration corresponding to 50% activity (IC50) determined using the XLFit curve-fitting program using a 4-parameter logistic model. Assays are performed as for aldosterone synthase except for the use of 150 units of CYP11B1, 11-deoxycortisol as substrate and cortisol measured as product.” for “described.”

[3] = cynomolgus adrenal gland mitochondria, 11-deoxycortisol as substrate, cortisol measured as product; read-out: CYP11B1 Inhibition IC50

Row | Structure (SMILES) | IC50 [1] [nM] | IC50 [2, 3] [nM] | IC50 ([2]; read-out: CYP11B1 Inhibition IC50; cynomolgus adrenal gland mitochondria, 11-deoxycortisol as substrate, cortisol measured as product) [nM]
1 | CC(=O)N1CCC(Cc2onc3c2C(=O)CC(C(C)C)C3)CC1 (single isomer, unassigned) [Cpd 15A, 3-(1-Acetyl-piperidin-4-ylmethyl)-6-isopropyl-6,7-dihydro-5H-benzo[c]isoxazol-4-one] | 22 | 2800 | –
2 | CC(=O)N1CCC(Cc2onc3c2C(=O)CC(C(C)C)C3)CC1 (single isomer, unassigned) [Cpd 15B, 3-(1-Acetyl-piperidin-4-ylmethyl)-6-isopropyl-6,7-dihydro-5H-benzo[c]isoxazol-4-one] | 110 | 18000 | –
3 | CC(C)C1CC(=O)c2c(noc2Cc2ccc(C#N)cc2)C1 (single isomer, unassigned) [Cpd 39A, 4-(-6-Isopropyl-4-oxo-4,5,6,7-tetrahydro-benzo[c]isoxazol-3-ylmethyl)-benzonitrile] | 230 | 8300 | –
4 | CC(C)C1CC(=O)c2c(noc2Cc2ccc(C#N)cc2)C1 (single isomer, unassigned) [Cpd 39B, 4-(-6-Isopropyl-4-oxo-4,5,6,7-tetrahydro-benzo[c]isoxazol-3-ylmethyl)-benzonitrile] | 120 | 3400 | –
5 | O=C1CC2(CCC2)Cc2noc(Cc3ccccc3)c21 [Cpd 1, 6,6-spiro-cyclobutyl-3-benzyl-6,7-dihydro-5-H-benzo[c]isoxazole-4-one] | 7.2 | 1100 | –
6 | O=C1CC(CC2CC2)Cc2noc(Cc3ccccc3)c21 (stereo not drawn) [Cpd 2, 3-Benzyl-6-cyclopropylmethyl-6,7-dihydro-5H-benzo[c]isoxazol-4-one] | 11 | 5000 | –
7 | CC1(C)CC(=O)c2c(noc2Cc2ccc3c(c2)OCCO3)C1 [Cpd 3, 3-(2,3-Dihydro-benzo[1,4]dioxin-6-ylmethyl)-6,6-dimethyl-6,7-dihydro-5H-benzo[c]isoxazol-4-one] | 17 | 590 | –
8 | CC(C)C1CC(=O)c2c(noc2CC2CC2)C1 (stereo not drawn) [Cpd 6, 3-Cyclopropylmethyl-6-isopropyl-6,7-dihydro-5H-benzo[c]isoxazol-4-one] | 27 | 21000 | –
9 | CC(C)C1CC(=O)c2c(noc2CC2CCOCC2)C1 (stereo not drawn) [Cpd 7, 6-Isopropyl-3-(tetrahydro-pyran-4-ylmethyl)-6,7-dihydro-5H-benzo[c]isoxazol-4-one] | 33 | 20000 | –
10 | COc1ccc(Cc2onc3c2C(=O)CC(C2CCOCC2)C3)cc1 (stereo not drawn) [Cpd 8, 3-(4-Methoxy-benzyl)-6-(tetrahydro-pyran-4-yl)-6,7-dihydro-5H-benzo[c]isoxazol-4-one] | 78 | > 100000 | –
11 | CC1(C)CC(=O)c2c(noc2Cc2ccc(S(C)(=O)=O)cc2)C1 [Cpd 9, 3-(4-Methanesulfonyl-benzyl)-6,6-dimethyl-6,7-dihydro-5H-benzo[c]isoxazol-4-one] | 84 | 3700 | –
12 | COc1ccc(Cc2onc3c2C(=O)CC(C)(C)C3)cn1 [Cpd 10, 3-(6-Methoxy-pyridin-3-ylmethyl)-6,6-dimethyl-6,7-dihydro-5H-benzo[c]isoxazol-4-one] | 110 | 7700 | –
13 | CC1(C)CC(=O)c2c(noc2Cc2cccc(C#N)c2)C1 [Cpd 11, 3-(6,6-Dimethyl-4-oxo-4,5,6,7-tetrahydro-benzo[c]isoxazol-3-ylmethyl)-benzonitrile] | 140 | 9300 | –
14 | N#Cc1ccc(Cc2onc3c2C(=O)CC(C2CCOCC2)C3)cc1 (stereo not drawn) [Cpd 12, 4-[4-Oxo-6-(tetrahydro-pyran-4-yl)-4,5,6,7-tetrahydro-benzo[c]isoxazol-3-ylmethyl]-benzonitrile] | 180 | 51000 | –
15 | CC1(C)CC(=O)c2c(noc2Cc2ccc(F)cc2)C1 [Cpd 13, 3-(4-Fluoro-benzyl)-6,6-dimethyl-6,7-dihydro-5H-benzo[c]isoxazol-4-one] | 190 | 22000 | –
16 | CC(C)C1CC(=O)c2c(noc2CC2CCNCC2)C1 (stereo not drawn) [Cpd 14, 4-(6-Isopropyl-4-oxo-4,5,6,7-tetrahydro-benzo[c]isoxazol-3-ylmethyl)-piperidinium hydrochloride] | 2400 | – | > 30000
17 | CC(=O)N1CCC(Cc2onc3c2C(=O)CC2(CCC2)C3)CC1 [Cpd 16, 3-(1-Acetyl-piperidin-4-ylmethyl)-6,6-spiro-cyclobutyl-6,7-dihydro-5H-benzo[c]isoxazol-4-one] | 47 | 3900 | –
18 | CC(=O)N1CCC(Cc2onc3c2C(=O)CC(C)(C)C3)CC1 [Cpd 17, 3-(1-Acetyl-piperidin-4-ylmethyl)-6,6-dimethyl-6,7-dihydro-5H-benzo[c]isoxazol-4-one] | 690 | 24000 | –
19 | COCC(=O)N1CCC(Cc2onc3c2C(=O)CC(C(C)C)C3)CC1 (stereo not drawn) [Cpd 18, 6-Isopropyl-3-[1-(2-methoxy-acetyl)-piperidin-4-ylmethyl]-6,7-dihydro-5H-benzo[c]isoxazol-4-one] | 89 | 2800 | –
20 | CC(C)C1CC(=O)c2c(noc2CC2CCN(C(=O)CO)CC2)C1 (stereo not drawn) [Cpd 19, 3-[1-(2-Hydroxy-acetyl)-piperidin-4-ylmethyl]-6-isopropyl-6,7-dihydro-5H-benzo[c]isoxazol-4-one] | 200 | 9900 | –
21 | CC(C)C1CC(=O)c2c(noc2CC2CCN(C(=O)CS(C)(=O)=O)CC2)C1 (stereo not drawn) [Cpd 20, 6-Isopropyl-3-[1-(2-methanesulfonyl-acetyl)-piperidin-4-ylmethyl]-6,7-dihydro-5H-benzo[c]isoxazol-4-one] | 410 | 14000 | –
22 | CC(C)C1CC(=O)c2c(noc2CC2CCN(C(N)=O)CC2)C1 (stereo not drawn) [Cpd 21, 4-(6-Isopropyl-4-oxo-4,5,6,7-tetrahydro-benzo[c]isoxazol-3-ylmethyl)-piperidine-l-carboxylic acid amide] | 330 | 23000 | –
23 | NC(=O)N1CCC(Cc2onc3c2C(=O)CC2(CCC2)C3)CC1 [Cpd 22, 4-(6,6-spiro-cyclobutyll-4-oxo-4,5,6,7-tetrahydro-benzo[c]isoxazol-3-ylmethyl)-piperidine-l-carboxylic acid amide] | 57 | 3500 | –
24 | CC1(C)CC(=O)c2c(noc2Cc2ccc(C#N)cc2)C1 [Cpd 23, 4-(6,6-Dimethyl-4-oxo-4,5,6,7-tetrahydro-benzo[c]isoxazol-3-ylmethyl)-benzonitrile] | 69 | 74000 | –
25 | CS(=O)(=O)CCCOc1ccc(Cc2onc3c2C(=O)CC(CC2CC2)C3)cc1 (stereo not drawn) [Cpd 24, 6-Cyclopropylmethyl-3-[4-(3-methanesulfonyl-propoxy)-benzyl]-6,7-dihydro-5H-benzo[c]isoxazol-4-one] | 17 | 1300 | –
26 | CC1(C)CC(=O)c2c(noc2Cc2ccc(I)cc2)C1 [Cpd 25, 3-(4-Iodo-benzyl)-6,6-dimethyl-6,7-dihydro-5H-benzo[c]isoxazol-4-one] | 29 | 2800 | –
27 | O=C1CC(Cc2ccccc2)Cc2noc(Cc3ccccc3)c21 (stereo not drawn) [Cpd 26, 3,6-Dibenzyl-6,7-dihydro-5H-benzo[c]isoxazol-4-one] | 49 | 2300 | –
